The term inhibition denotes the share of the control response that was lost under treatment.

The record followed here is ChEMBL document CHEMBL1156798, “Structural conservation in band 4.1, ezrin, radixin, moesin (FERM) domains as a guide to identify inhibitors of the proline-rich tyrosine kinase 2” (J Med Chem, 2010).

The source made the active and inactive calls.

The target in the first assay is Protein-tyrosine kinase 2-beta (Homo sapiens) (UniProt Q14289). Nature of the assay: Inhibition of HA-epitope-tagged Pyk2 FERM domain expressed in HEK293 cells assessed as inhibition of binding to 12A10 antibody by ELISA. In kind it is cell-based. Also noted: inhibition: concentration or dose not given beside the values.
Sequence of Protein-tyrosine kinase 2-beta (Homo sapiens) (Q14289 whole entry, looked up, the tested form may be a part): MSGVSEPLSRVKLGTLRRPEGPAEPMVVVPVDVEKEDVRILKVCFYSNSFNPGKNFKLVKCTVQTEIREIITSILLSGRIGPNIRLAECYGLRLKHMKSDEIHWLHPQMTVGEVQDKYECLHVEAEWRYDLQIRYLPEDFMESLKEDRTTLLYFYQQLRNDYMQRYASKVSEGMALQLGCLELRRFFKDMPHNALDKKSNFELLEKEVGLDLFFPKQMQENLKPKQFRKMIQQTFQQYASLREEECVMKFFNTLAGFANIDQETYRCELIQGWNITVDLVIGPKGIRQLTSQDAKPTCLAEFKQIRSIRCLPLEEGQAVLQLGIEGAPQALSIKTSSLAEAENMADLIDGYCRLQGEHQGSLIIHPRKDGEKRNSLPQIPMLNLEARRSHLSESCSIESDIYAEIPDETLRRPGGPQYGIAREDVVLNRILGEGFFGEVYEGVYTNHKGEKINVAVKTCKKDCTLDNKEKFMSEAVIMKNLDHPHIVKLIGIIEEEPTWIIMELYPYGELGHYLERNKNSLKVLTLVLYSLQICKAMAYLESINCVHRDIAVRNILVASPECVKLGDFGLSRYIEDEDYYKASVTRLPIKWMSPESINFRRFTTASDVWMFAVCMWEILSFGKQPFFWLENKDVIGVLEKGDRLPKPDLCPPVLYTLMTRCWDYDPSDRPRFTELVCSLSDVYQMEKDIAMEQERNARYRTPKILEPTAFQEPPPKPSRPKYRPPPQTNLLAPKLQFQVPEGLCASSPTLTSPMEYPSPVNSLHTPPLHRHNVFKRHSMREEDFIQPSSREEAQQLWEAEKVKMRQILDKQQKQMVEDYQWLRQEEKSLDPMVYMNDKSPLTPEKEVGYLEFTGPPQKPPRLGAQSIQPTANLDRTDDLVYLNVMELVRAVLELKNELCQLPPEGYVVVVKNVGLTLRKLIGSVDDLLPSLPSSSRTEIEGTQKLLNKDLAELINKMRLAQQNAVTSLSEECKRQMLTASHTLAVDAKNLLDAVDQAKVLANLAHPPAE
Settings: not given
(In general: ELISA stands for enzyme-linked immunosorbent assay.)
As for `Cc1cc(NS(=O)(=O)c2ccc3c(c2)CN(C(=O)C(F)(F)F)CC3)nc(C)n1`, the outcome was inactive.

Turning to `Cc1cccc(C)c1NC(=O)CN1CCCN(C(=O)CNC(=O)c2ccco2)CC1`, the outcome was inactive.

As to `COc1ccc(C(N)=O)cc1NC(=O)c1csc(C2CCN(C(=O)c3cnn(-c4ccccc4)c3C)CC2)n1`, the outcome was inactive.

With `C=CCOC(=O)NCCSc1nc2ccc(NC(=O)Cc3nc(C)sc3C)cc2s1`, the result was inactive.

Turning to `Cc1cc(C)cc(NC(=O)N2CCC3(CCN(C(=O)CCCC[C@@H]4SC[C@@H]5NC(=O)N[C@@H]54)C3)CC2)c1`, the result was inactive.

Take `O=C(COc1ccccc1)NNC(=O)c1csc(C2CCN(C(=O)NCCC3=CCCCC3)CC2)n1`: the outcome was inactive.

Consider `COc1ccc(C(N)=O)cc1NC(=O)c1csc(C2CCN(C(=O)C#Cc3ccccc3)CC2)n1`, for which the result was inactive.

In the case of `CN(C)c1ccc(NC(=S)N2CCC(c3nc(C(=O)NC[C@@H]4COc5ccccc5O4)cs3)CC2)cc1`, the outcome was inactive.

For `C=CCOC(=O)NCCSc1nc2ccc(NC(=O)/C=C/c3ccc([N+](=O)[O-])o3)cc2s1`, the result was inactive.

For the molecule `COC(=O)c1ccc(NS(=O)(=O)c2ccc(NC(C)=O)c(Cl)c2)cc1OC`, the result was inactive.

With `CC(=O)Nc1cccc(OCCCNC(=O)c2csc(C3CCN(C(=O)C4CCCCC4)CC3)n2)c1`, the result was inactive.

In the case of `O=C(NNC(=O)[C@H]1CCCNC1=O)c1csc(C2CCN(C(=O)NCCC3=CCCCC3)CC2)n1`, the outcome was inactive.

Consider `C=CCOC(=O)NCCSc1nc2ccc(NC(=O)C(C)(C)n3cncn3)cc2s1`, for which the outcome was inactive.

For `COc1ccc(C(N)=O)cc1NC(=O)c1csc(C2CCN(C(=O)c3cc(OC)c4ccccc4n3)CC2)n1`, the outcome was inactive.

As for `Cc1ccc(C(=O)NCCCn2ccnc2)c(C2CCN(C(=O)/C=C/c3cccc(O)c3)CC2)n1`, the outcome was inactive.

For the molecule `C=CCOC(=O)NCCSc1nc2ccc(NC(=O)C3CCN(C(=O)c4ccccc4)CC3)cc2s1`, the result was inactive.

Consider `COc1ccc(C(N)=O)cc1NC(=O)c1csc(C2CCN(C(=O)c3cc4ccccc4o3)CC2)n1`, for which the outcome was inactive.

On to `CCCCNS(=O)(=O)c1cccc(NC(=O)CNC(=O)c2ccoc2)c1`, for which the result was inactive.

Consider `C=CCOC(=O)NCCSc1nc2ccc(NC(=O)c3cc(C)n(C)n3)cc2s1`, for which the outcome was inactive.

With `Cc1ccc(C(=O)NCCc2c[nH]c3ccccc23)c(C2CCN(C(=O)c3ccc(NC(N)=S)cc3)CC2)n1`, the result was inactive.

As to `C=CCOC(=O)NCCSc1nc2ccc(NC(=O)c3ccccc3S(C)(=O)=O)cc2s1`, the outcome was inactive.

Take `CN(C)c1ccc(NC(=S)N2CCC(c3nc(C(=O)NCCOc4ccccc4Cl)cs3)CC2)cc1`: the outcome was inactive.

With `C=CCOC(=O)NCCSc1nc2ccc(NC(=O)[C@H]3CCOC3)cc2s1`, the result was inactive.

Regarding `C#CC[C@H](NC(C)=O)C(=O)Nc1ccc2nc(SCCNC(=O)OCC=C)sc2c1`, the outcome was inactive.

On to `CC(C)(C)c1cc(O)nc(SCC(=O)N2CCCN(CC(=O)Nc3ccccc3C(C)(C)C)CC2)n1`, for which the outcome was inactive.

Turning to `O=C(CN1CCCN(C(=O)CNC(=O)C(F)(F)F)CC1)Nc1ccc(F)cc1F`, the result was inactive.

Take `O=C(NNC(=O)c1n[nH]c2ccccc12)c1csc(C2CCN(C(=O)NCCC3=CCCCC3)CC2)n1`: the outcome was inactive.

For `N#Cc1c(Cl)cccc1Oc1ccc(S(=O)(=O)Nc2ccc(S(=O)(=O)Nc3ccccn3)cc2)cc1`, the result was inactive.

`CCOc1ccccc1CNC(=O)c1ccc(C)nc1C1CCN(C(=O)/C=C/c2cccc(O)c2)CC1`: the outcome was inactive.

Regarding `COc1ccc(OC)c(NC(=S)NCC(=O)N[C@@H](CC(C)C)C(N)=O)c1`, the outcome was inactive.

Consider `C=CCOC(=O)NCCSc1nc2ccc(NC(=O)CCn3c(=O)oc4ccccc43)cc2s1`, for which the result was inactive.

For the molecule `CCOC(=O)c1nc(NC(=O)c2csc(C3CCN(C(=O)NCCC4=CCCCC4)CC3)n2)cn1C`, the outcome was inactive.

As for `Cc1ccc(C(=O)NCCc2cccs2)c(C2CCN(C(=O)c3nc4ccccc4nc3O)CC2)n1`, the outcome was inactive.

On to `COc1ccc(C(=O)CCC(=O)N2CCC(c3nc(C(=O)Nc4cc(C(N)=O)ccc4OC)cs3)CC2)cc1`, for which the outcome was inactive.

Take `C=CCOC(=O)NCCSc1nc2ccc(NC(=O)c3cc(NC(C)=O)cc(NC(C)=O)c3)cc2s1`: the result was inactive.

`O=C(CN1CCCN(C(=O)CNC(=O)c2ccco2)CC1)NCCc1ccccc1`: the outcome was inactive.

In the case of `CCOC(=O)NNC(=O)c1csc(C2CCN(C(=O)Cc3c[nH]c4ccccc34)CC2)n1`, the result was inactive.

Turning to `CC(=O)Nc1ccc(O)c(C(=O)N2CCC(c3nc(C)ccc3C(=O)NCCc3cccs3)CC2)c1`, the outcome was inactive.

As for `CN(C)c1ccc(NC(=S)N2CCC(c3nc(C(=O)NC[C@H](c4ccc[nH]4)C(F)(F)F)cs3)CC2)cc1`, the outcome was inactive.

Consider `COc1ccccc1NC(=O)N1CCC2(CC1)CCN(S(=O)(=O)c1sc(NC(C)=O)nc1C)C2`, for which the outcome was inactive.

For the molecule `Cc1ccc(C(=O)Nc2nnc(C(C)(C)C)s2)c(C2CCN(C(=O)c3nc4ccccc4nc3O)CC2)n1`, the result was inactive.

In the case of `C=CCOC(=O)NCCSc1nc2ccc(NC(=O)c3c([N+](=O)[O-])c(C)nn3C)cc2s1`, the result was inactive.

On to `O=C(NCC(=O)N1CCC2(CC1)CCN(C(=S)NC[C@@H]1CCCO1)C2)c1ccco1`, for which the result was inactive.

Consider `C=CCOC(=O)NCCSc1nc2ccc(NC(=O)[C@H]3CCCN3C(=O)c3cccs3)cc2s1`, for which the result was inactive.

On to `C=CCOC(=O)NCCSc1nc2ccc(NC(=O)c3coc4c3C(=O)CCC4)cc2s1`, for which the outcome was inactive.

For `C=CCOC(=O)NCCSc1nc2ccc(NC(=O)c3c(C)noc3C)cc2s1`, the outcome was inactive.

Regarding `C=CCOC(=O)NCCSc1nc2ccc(NC(=O)c3cccc(C#N)c3)cc2s1`, the result was inactive.

With `C=CCOC(=O)NCCSc1nc2ccc(NC(=O)Cc3ccc([N+](=O)[O-])cc3)cc2s1`, the result was inactive.

On to `CC(=O)Nc1ccc(S(=O)(=O)NNC(=O)Nc2c(C(C)C)cccc2C(C)C)cc1Cl`, for which the outcome was inactive.

Regarding `C=CCOC(=O)NCCSc1nc2ccc(NC(=O)c3ccc([N+](=O)[O-])cc3F)cc2s1`, the result was inactive.

For `CN(C)c1ccc(NC(=S)N2CCC(c3nc(C(=O)NCCc4c[nH]c5ccc(F)cc45)cs3)CC2)cc1`, the result was inactive.

Consider `O=C(N1CCc2ccc(S(=O)(=O)Nc3ccc(Cl)nn3)cc2C1)C(F)(F)F`, for which the outcome was inactive.

For `C=CCOC(=O)NCCSc1nc2ccc(NC(=O)CS(=O)(=O)c3ccc(C)cc3)cc2s1`, the result was inactive.

In the case of `C=CCOC(=O)NCCSc1nc2ccc(NC(=O)C3(C#N)CC3)cc2s1`, the result was inactive.

Turning to `C=CCOC(=O)NCCSc1nc2ccc(NC(=O)CNC(=O)OC)cc2s1`, the result was inactive.

Consider `O=C(Nc1ccccc1N1CCOCC1)c1csc(C2CCN(C(=O)NCCC3=CCCCC3)CC2)n1`, for which the result was inactive.

With `CCCOCCNC(=O)c1ccc(C)nc1C1CCN(C(=O)c2cc(NC(C)=O)ccc2O)CC1`, the outcome was inactive.

With `Cc1nc(C)c(C(=O)NNC(=O)c2csc(C3CCN(C(=O)Cc4c[nH]c5ccccc45)CC3)n2)s1`, the outcome was inactive.

The same assay, now with this note: concentration not given here.
As for `C=CCOC(=O)NCCSc1nc2ccc(NC(=O)CSc3ccccn3)cc2s1`, the inhibition was 22%.

Take `Cc1ccc(C(=O)NCCc2cc3ccccc3[nH]2)c(C2CCN(C(=O)CNC(=O)Nc3ccccc3)CC2)n1`: the inhibition was 6%.

As to `COc1ccc(NC(C)=O)cc1NS(=O)(=O)c1ccc(NC(C)=O)cc1`, the inhibition stood at 18%.

With `C=CCOC(=O)NCCSc1nc2ccc(NC(=O)CSc3nc(C)cc(C)n3)cc2s1`, the inhibition is 19%.

In the case of `O=C(NCC(=O)N1CCC2(CC1)CCN(C(=O)Cc1n[nH]c(=O)c3ccccc13)C2)c1ccco1`, the inhibition was determined as 18%.

In the case of `C=CCOC(=O)NCCSc1nc2ccc(NC(=O)[C@H]3CC(=O)c4ccccc43)cc2s1`, the inhibition worked out at 11%.

As to `C=CCOC(=O)NCCSc1nc2ccc(NC(=O)c3csnn3)cc2s1`, the inhibition is 33%.

Take `CC(=O)Nc1ccc(S(=O)(=O)NNC(=O)Nc2ccccc2-c2ccccc2)cc1Cl`: the inhibition amounted to 24%.

The target is the same in another assay. Nature of the assay: Inhibition of Pyk2-mediated stimulation of human SF767 glioma cell migration at 50 uM by radial migration assay relative to control.
Settings: not given
In the case of `C=CCOC(=O)NCCSc1nc2ccc(NC(=O)c3csnn3)cc2s1`, the inhibition is 85%.

The target is the same in another assay. Nature of the assay: Binding affinity to human Pyk2 FERM domain by LC/MS depletion assay.
Settings: not given
`C=CCOC(=O)NCCSc1nc2ccc(NC(=O)c3csnn3)cc2s1`: the result was Active.

The target is the same in a further assay. As to the kind of experiment: Inhibition of Pyk2-mediated stimulation of human SF767 glioma cell migration at 5 uM by radial migration assay relative to control.
Settings: not given
Molecule `C=CCOC(=O)NCCSc1nc2ccc(NC(=O)c3csnn3)cc2s1` gave an inhibition of 50%.
